Results taken from patent publication US20150005277A1, “Protein Kinase Inhibitors and Uses Thereof” (Beigene, Ltd., priority 2013, published 2015).

Assays:
Recombinant Btk = Recombinant Btk (Homo sapiens, UniProt Q06187); experiment: Btk Kinase Assay (TR-FRET)
[1] = target: T1, phosphorylated Btk at Tyr223 in Ramos cells (Homo sapiens, UniProt Q06187); experiment: Btk pY223 Cellular Assay (HTRF, Ramos cells); type: cell-based; settings: 1 hour compound incubation, stimulated with pervanadate or Na3VO4, read-out: 1050 (nM) Btk pY223
T1 construct: determine the endogenous levels of phosphorylated Btk at Tyr223; endogenous in cells; host or cells: Ramos cells (CRL-1596, ATCC)
Procedure: Btk pY223 cellular assay is a HTRF based assay intended to determine the endogenous levels of phosphorylated Btk at Tyr223. Phosphorylated Tyr223 is necessary for full activation of Btk.
Briefly, Ramos cells were serum starved in 0.5% FBS-containing RPMI1640 for 2 hours. Following starvation, the cells were incubated with compounds to be detected at various concentrations in a CO2 incubator for 1 hour. After incubation, cells were stimulated with 1 mM pervanadate (PV) or Na3VO4 (OV) for 20 min. Then, the cells were spinned down and lysed with 1× lysis buffer at RT for 10 min (4× lysis buffer supplied in the kit). During the incubation, 1× antibody mix was prepared by diluting anti-Btk-d2 and anti-pBtk-K in detection buffer (supplied in the kit). […] After that, 18 ul of cell lysate was transferred to the assay plate pre-loaded with antibody solution. After mixing gently and spinning briefly, the plate was sealed up and kept in dark at RT for 18 hours. The fluorescence emission was measured at two different wavelengths (665 nm and 620 nm) on a compatible HTRF reader (PHERAstar FS, BMG).

Chain of Recombinant Btk (Q06187 whole entry): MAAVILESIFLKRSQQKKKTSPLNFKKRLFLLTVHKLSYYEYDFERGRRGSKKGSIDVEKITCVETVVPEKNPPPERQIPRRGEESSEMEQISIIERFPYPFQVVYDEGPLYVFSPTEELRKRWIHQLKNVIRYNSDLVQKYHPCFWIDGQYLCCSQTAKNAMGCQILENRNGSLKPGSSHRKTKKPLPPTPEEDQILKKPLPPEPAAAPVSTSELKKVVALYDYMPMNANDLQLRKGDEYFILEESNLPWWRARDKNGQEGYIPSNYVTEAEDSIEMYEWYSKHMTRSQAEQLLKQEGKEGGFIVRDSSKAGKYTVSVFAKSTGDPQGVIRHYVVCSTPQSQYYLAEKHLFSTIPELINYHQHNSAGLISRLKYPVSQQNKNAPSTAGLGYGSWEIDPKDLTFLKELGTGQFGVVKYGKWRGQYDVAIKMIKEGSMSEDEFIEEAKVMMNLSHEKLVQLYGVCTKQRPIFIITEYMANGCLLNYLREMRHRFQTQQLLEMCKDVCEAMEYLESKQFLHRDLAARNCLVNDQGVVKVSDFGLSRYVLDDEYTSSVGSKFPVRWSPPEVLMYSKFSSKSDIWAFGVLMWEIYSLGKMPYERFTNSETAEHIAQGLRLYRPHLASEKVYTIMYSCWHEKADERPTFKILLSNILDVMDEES
T1 sequence (Q06187 whole entry): as above

Structure (SMILES)	IC50 (Recombinant Btk)	IC50 [1]
CN(C)C/C=C/C(=O)N1CCCC(n2nc(-c3ccc(Oc4ccccc4)cc3)c(C(N)=O)c2N)C1 (stereo not shown) [Compound I-4, (E)-5-Amino-1-(1-(4-(dimethylamino)but-2-enoyl)piperidin-3-yl)-3-(4-phenoxyphenyl)-1H-pyrazole-4-carboxamide]	0.56 nM	3.6 nM
CC=CC(=O)N1CCCC(n2nc(-c3ccc(Oc4ccccc4)cc3)c(C(N)=O)c2N)C1 (stereo not shown) [Compound I-5, 5-Amino-1-(1-(but-2-enoyl)piperidin-3-yl)-3-(4-phenoxyphenyl)-1H-pyrazole-4-carboxamide]	2.5 nM	42.6 nM
NC(=O)c1c(-c2ccc(Oc3ccccc3)cc2)nn(C2CCCN(C(=O)CCl)C2)c1N (stereo not shown) [Compound I-6, 5-Amino-1-(1-(2-chloroacetyl)piperidin-3-yl)-3-(4-phenoxyphenyl)-1H-pyrazole-4-carboxamide]	0.22 nM	10.4 nM
CN1CC=C(C(=O)N2CCCC(n3nc(-c4ccc(Oc5ccccc5)cc4)c(C(N)=O)c3N)C2)CC1 (stereo not shown) [Compound I-7, 5-Amino-1-(1-(1-methyl-1,2,3,6-tetrahydropyridine-4-carbonyl)piperidin-3-yl)-3-(4-phenoxyphenyl)-1H-pyrazole-4-carboxamide]	14 nM	
C=CS(=O)(=O)N1CCCC(n2nc(-c3ccc(Oc4ccccc4)cc3)c(C(N)=O)c2N)C1 (stereo not shown) [Compound I-8, 5-Amino-3-(4-phenoxyphenyl)-1-(1-(vinylsulfonyl)piperidin-3-yl)-1H-pyrazole-4-carboxamide]	0.23 nM	
N#CCC(=O)N1CCCC(n2nc(-c3ccc(Oc4ccccc4)cc3)c(C(N)=O)c2N)C1 (stereo not shown) [Compound I-9, 5-Amino-1-(1-(2-cyanoacetyl)piperidin-3-yl)-3-(4-phenoxyphenyl)-1H-pyrazole-4-carboxamide]	22 nM	
CN(C)C(=O)/C=C/CN1CCCC(n2nc(-c3ccc(Oc4ccccc4)cc3)c(C(N)=O)c2N)C1 (stereo not shown) [Compound I-10, (E)-5-Amino-1-(1-(4-(dimethylamino)-4-oxobut-2-enyl)piperidin-3-yl)-3-(4-phenoxyphenyl)-1H-pyrazole-4-carboxamide]	18 nM	
N#C/C=C/CN1CCCC(n2nc(-c3ccc(Oc4ccccc4)cc3)c(C(N)=O)c2N)C1 (stereo not shown) [Compound I-11, (E)-5-Amino-1-(1-(3-cyanoallyl)piperidin-3-yl)-3-(4-phenoxyphenyl)-1H-pyrazole-4-carboxamide]	7.6 nM	
N#C/C=C\CN1CCCC(n2nc(-c3ccc(Oc4ccccc4)cc3)c(C(N)=O)c2N)C1 (stereo not shown) [Compound I-12, (Z)-5-Amino-1-(1-(3-cyanoallyl)piperidin-3-yl)-3-(4-phenoxyphenyl)-1H-pyrazole-4-carboxamide]	18 nM	
C#CC(=O)N1CCCC(n2nc(-c3ccc(Oc4ccccc4)cc3)c(C(N)=O)c2N)C1 (stereo not shown) [Compound I-13, 5-Amino-3-(4-phenoxyphenyl)-1-(1-propioloylpiperidin-3-yl)-1H-pyrazole-4-carboxamide]	0.21 nM	7.5 nM
C=CC(=O)N1CCC[C@@H](n2nc(-c3ccc(Cl)cc3)c(C(N)=O)c2N)C1 [Compound I-14, (R)-1-(1-Acryloylpiperidin-3-yl)-5-amino-3-(4-chlorophenyl)-1H-pyrazole-4-carboxamide]	0.54 nM	3.3 nM
C=CC(=O)N1CCC[C@@H](n2nc(-c3ccc(C)c(OC)c3)c(C(N)=O)c2N)C1 [Compound I-15, (R)-1-(1-Acryloylpiperidin-3-yl)-5-amino-3-(3-methoxy-4-methylphenyl)-1H-pyrazole-4-carboxamide]	0.24 nM	0.3 nM
C=CC(=O)N1CCC[C@@H](n2nc(-c3ccc(OC)cc3)c(C(N)=O)c2N)C1 [Compound I-16, (R)-1-(1-Acryloylpiperidin-3-yl)-5-amino-3-(4-methoxyphenyl)-1H-pyrazole-4-carboxamide]	1.4 nM	17.7 nM
C=CC(=O)N1CCC[C@@H](n2nc(-c3ccc(OCC4CC4)cc3)c(C(N)=O)c2N)C1 [Compound I-17, (R)-1-(1-Acryloylpiperidin-3-yl)-5-amino-3-(4-(cyclopropylmethoxy)phenyl)-1H-pyrazole-4-carboxamide]	0.92 nM	
C=CC(=O)N1CCC[C@@H](n2nc(-c3ccc(OC(C)C)cc3)c(C(N)=O)c2N)C1 [Compound I-18, (R)-1-(1-Acryloylpiperidin-3-yl)-5-amino-3-(4-isopropoxyphenyl)-1H-pyrazole-4-carboxamide]	2.4 nM	
C=CC(=O)N1CC2(CC(n3nc(-c4ccc(Oc5ccccc5)cc4)c(C(N)=O)c3N)C2)C1 [Compound I-19, 1-(2-Acryloyl-2-azaspiro[3.3]heptan-6-yl)-5-amino-3-(4-phenoxyphenyl)-1H-pyrazole-4-carboxamide]	0.15 nM	
C=CC(=O)N1CCC[C@@H](n2nc(-c3ccc(OCC(C)C)cc3)c(C(N)=O)c2N)C1 [Compound I-20, (R)-1-(1-Acryloylpiperidin-3-yl)-5-amino-3-(4-isobutoxyphenyl)-1H-pyrazole-4-carboxamide]	0.49 nM	
C=CC(=O)N1CCC[C@@H](n2nc(-c3ccc(Cl)c(OC)c3)c(C(N)=O)c2N)C1 [Compound I-21, (R)-1-(1-Acryloylpiperidin-3-yl)-5-amino-3-(4-chloro-3-methoxyphenyl)-1H-pyrazole-4-carboxamide]	0.18 nM	

Other lines, results leading:

IC50 (Recombinant Btk)	IC50 [1]	Structure (SMILES)
3.3 nM	16.6 nM	C=CC(=O)N1CCc2c(c(N)c(C(N)=O)n2-c2ccc(Oc3ccccc3)cc2)C1 [II-1, 5-Acryloyl-3-amino-1-(4-phenoxyphenyl)-4,5,6,7-tetrahydro-1H-pyrrolo[3,2-c]pyridine-2-carboxamide]
3200 nM		C=CC(=O)N1CCC(N2CCc3c(c(N)c(C(N)=O)n3-c3ccc(Oc4ccccc4)cc3)C2)C1 (stereo not shown) [II-2, 5-(1-Acryloylpyrrolidin-3-yl)-3-amino-1-(4-phenoxyphenyl)-4,5,6,7-tetrahydro-1H-pyrrolo[3,2-c]pyridine-2-carboxamide]
480 nM		C=CC(=O)NCCN1CCc2c(c(N)c(C(N)=O)n2-c2ccc(Oc3ccccc3)cc2)C1 [II-3, 5-(2-Acrylamidoethyl)-3-amino-1-(4-phenoxyphenyl)-4,5,6,7-tetrahydro-1H-pyrrolo[3,2-c]pyridine-2-carboxamide]
25 nM		C=CC(=O)N1CCc2c(c(N)c(C(N)=O)n2-c2ccc(OCc3ccccc3)cc2)C1 [II-4, 5-Acryloyl-3-amino-1-(4-(benzyloxy)phenyl)-4,5,6,7-tetrahydro-1H-pyrrolo[3,2-c]pyridine-2-carboxamide]
9 nM		C=CC(=O)N1Cc2c(N)c(C(N)=O)n(-c3ccc(Oc4ccccc4)cc3)c2C1 [II-5, 5-Acryloyl-3-amino-1-(4-phenoxyphenyl)-1,4,5,6-tetrahydropyrrolo[3,4-b]pyrrole-2-carboxamide]
34 nM		C=CC(=O)N1Cc2c(N)c(C(N)=O)n(-c3ccc(Oc4ccc(C(C)(C)C)cc4)cc3)c2C1 [II-6, 5-Acryloyl-3-amino-1-(4-(4-(tert-butyl)phenoxy)phenyl)-1,4,5,6-tetrahydropyrrolo[3,4-b]pyrrole-2-carboxamide]
9.4 nM	55.6 nM	C=CC(=O)Nc1ccc2c(c1)c(N)c(C(N)=O)n2-c1ccc(Oc2ccccc2)cc1 [II-7, 5-Acrylamido-3-amino-1-(4-phenoxyphenyl)-1H-indole-2-carboxamide]
210 nM		C=CC(=O)Nc1ccc2c(N)c(C(N)=O)n(-c3ccc(Oc4ccccc4)cc3)c2c1 [II-8, 6-Acrylamido-3-amino-1-(4-phenoxyphenyl)-1H-indole-2-carboxamide]
7600 nM		NC(=O)c1c(N)c(C2CCNCC2)cn1-c1ccc(Oc2ccccc2)cc1 [II-9, 3-Amino-1-(4-phenoxyphenyl)-4-(piperidin-4-yl)-1H-pyrrole-2-carboxamide]
2.7 nM		C=CC(=O)N1CCCC(c2cn(-c3ccc(Oc4ccccc4)cc3)c(C(N)=O)c2N)C1 (stereo not shown) [II-10, 4-(1-Acryloylpiperidin-3-yl)-3-amino-1-(4-phenoxyphenyl)-1H-pyrrole-2-carboxamide]
